Source: patent publication US20130040390A1, “CULTURE MEDIUM SUPPLEMENT AND USE THEREOF” (GUANGZHOU INSTITUTES OF BIOMEDICINE AND HEALTH, CHINESE …, priority 2010, published 2013)

Assays:
Assay type in all cases: cell-based, mouse
Oct4-GFP MEFs [1] = experiment: iPS efficiency test: MEFs infected with SKO viruses, reprogrammed clones counted / GFP cell ratio by FCM; conditions: for recommended working concentration: from dose-response in Basal3.0, day 10; for effect on the reprogramming efficiency: ingredient left out of iCD1, clones at day 8 after SKO infection; for effect on the iCD1 reprogramming efficiency: added to iCD1: A83-01 0.5 μM, valproic acid 1 mM, 2% fetal bovine serum
Description: Somatic cell type used in reprogramming is OG2 MEFs of no more than 3 passages. OG2 mice are transgenic mice with green fluorescent protein (GFP) gene linked after the promoter of Oct4 gene specifically expressed by stem cell. At a later stage of the reprogramming, endogenous Oct4 of OG2 MEF is activated, and the green fluorescent protein is concomitantly expressed, so the cells or reprogrammed clones appear green when observed under a fluorescence microscope. The reprogramming efficiencies under different conditions can be compared by a research by directly counting the reprogrammed clones, that is, the green fluorescent clones under a fluorescence microscope, or by analyzing the ratio of the green fluorescent cells through flow cytometry (FCM).
Cell assay and preparation of viruses are as follows. […] 6-18 hrs after the cell seeding, the cells are infected with the viruses carrying a mouse reprogramming factor according to the cell density and state. The infection is carried out in two rounds, 24 hrs after the first round of infection, the second round of infection is carried out, and the virus fluid is replaced by various test media 24 hrs after the second round of infection. The day of replacing the virus fluid is recorded as day 0 (D0), and the GFP fluorescent clones are counted in the original wells or the ratio of the GFP fluorescent cells are analyzed by flow cytometry (FCM) at different times after infection as desired.
The preparation of virus includes transfecting virus packaging cells (PlatE) with reprogramming factor plasmid cloned onto a PMX vector, refreshing the culture media 12-16 hrs after infection, using the culture collected 48 hrs after the transfection as a virus fluid for the first infection, and using the additional culture collected 24 hrs after adding fresh culture as a virus fluid for the second infection. […]

Oct4-GFP MEFs [2] = experiment: Growth curves of SKO-infected embryonic fibroblasts in iCD1 lacking single ingredients; conditions: ingredient left out of iCD1, cells counted at D0, day 3, day 6
Description: In order to determine whether the effects of the above six substances on reprogramming are cell growth dependent or independent, growth curves of the embryonic fibroblasts infected with reprogramming factor SKO and then cultured respectively in 9 culture states including iCD1, iCD1 without vitamin C, iCD1 without bFGF, iCD1 without CHIR99021, iCD1 without lithium chloride, iCD1 without vitamin B12, iCD1 without thiamine, iCD1 without all of the six ingredients, and mES were plotted. 2×10^4 initial Oct4-GFP MEFs were infected with SKO viruses, and then cultured respectively in the above 9 culture media. The cells were digested respectively at the day of infection and medium replacement (day D0) and days 3 and 6 after infection, and the cells per well were counted. The replications n in each group of test are 3, and the error bar represents standard deviation (SD).

Oct4-GFP MEFs [3] = experiment: iPS efficiency test: MEFs infected with SKO viruses, reprogrammed clones counted / GFP cell ratio by FCM; conditions: 1×10^4 MEFs, clones at day 10

O=C(O)CCCC[C@@H]1CCSS1 (racemic) [lipoic acid]
recommended working concentration (Oct4-GFP MEFs [1]): 0.2 µg/mL

CCCCC/C=C\C/C=C\CCCCCCCC(=O)O [linoleic acid]
recommended working concentration (Oct4-GFP MEFs [1]): 1 µg/mL

bFGF: basic fibroblast growth factor
effect on cell growth (Oct4-GFP MEFs [2]): different degrees of effects on cell growth
final concentration above which an increase has no obvious improvement effect on the reprogramming efficiency (Oct4-GFP MEFs [3]; in iCD1, 0-10 ng/ml): higher than 5 ng/ml
period of the reprogramming in which it mainly plays a role (Oct4-GFP MEFs [1]; added to iCD1 at different times from days 0 to 10, clones at day 10, n=6): 0 to 8 days
recommended working concentration (Oct4-GFP MEFs [1]): 0.005 µg/mL
effect on the reprogramming efficiency (Oct4-GFP MEFs [1]): especially remarkable

CCCC(CCC)C(=O)O [valproic acid (VPA), valproic acid, reference compound]
effect on the iCD1 reprogramming efficiency (Oct4-GFP MEFs [1]; clones at day 10): cannot further improve the iCD1 reprogramming efficiency

O=C1O[C@H]([C@@H](O)CO)C(O)=C1O [vitamin C, ascorbic acid]
effect on cell growth (Oct4-GFP MEFs [2]): no obvious effect on cell growth
recommended working concentration (Oct4-GFP MEFs [1]): 50 µg/mL
concentration above which an increase has no obvious improvement effect on the reprogramming efficiency (Oct4-GFP MEFs [1]; in iCD1, 0-100 μg/ml, 2×10^4 MEFs, clones at day 10): higher than 25 μg/ml
effect on the reprogramming efficiency (Oct4-GFP MEFs [1]): especially remarkable

Cc1cccc(-c2nn(C(=S)Nc3ccccc3)cc2-c2ccnc3ccccc23)n1 [A83-01, reference compound]
effect on the iCD1 reprogramming efficiency (Oct4-GFP MEFs [1]; clones at day 10): cannot further improve the iCD1 reprogramming efficiency

[Cl-].[Li+] [lithium chloride, Lithium chloride]
recommended working concentration (Oct4-GFP MEFs [1]): 5 mmol/mL
effect on the reprogramming efficiency (Oct4-GFP MEFs [1]): have effects on the reprogramming efficiency

vitamin E
recommended working concentration (Oct4-GFP MEFs [1]; anti-oxidants): 1000 µg/mL

EGF: epidermal growth factor
effect on reprogramming (receptor tyrosine kinase family growth factor) (Oct4-GFP MEFs [1]; added to iCD1 without receptor tyrosine kinase, clones at day 10): can also promote the reprogramming

N[C@@H](CCC(=O)N[C@@H](CS)C(=O)NCC(=O)O)C(=O)O [reduced glutathione]
recommended working concentration (Oct4-GFP MEFs [1]; anti-oxidants): 1500 µg/mL

vitamin A
recommended working concentration (Oct4-GFP MEFs [1]): 0.1 µg/mL

NCCO [ethanolamine]
recommended working concentration (Oct4-GFP MEFs [1]): 1 µg/mL

Cc1ncc(C[n+]2csc(CCO)c2C)c(N)n1 [thiamine]
recommended working concentration (Oct4-GFP MEFs [1]; anti-oxidants): 9000 µg/mL
effect on the reprogramming efficiency (Oct4-GFP MEFs [1]): have effects on the reprogramming efficiency

insulin: recombinant human insulin (SIGMA Inc.) preferred
recommended working concentration (Oct4-GFP MEFs [1]): 50 µg/mL

Cc1c[nH]c(-c2cnc(NCCNc3ccc(C#N)cn3)nc2-c2ccc(Cl)cc2Cl)n1 [CHIR99021, reference compound]
effect on cell growth (Oct4-GFP MEFs [2]): different degrees of effects on cell growth
optimum effect concentration (Oct4-GFP MEFs [3]; in iCD1, 0-12 μmol/ml): about 3 mM
effect on reprogramming efficiency of Basal3.0 (Oct4-GFP MEFs [1]; added to Basal3.0, clone number and cell ratio as indexes): can significantly improve the reprogramming efficiency
effect of high dose on the reprogramming efficiency (Oct4-GFP MEFs [1]; in iCD1, 0-12 μmol/ml, clones at day 10): inhibition effect on the reprogramming efficiency
effect on the reprogramming efficiency (Oct4-GFP MEFs [1]): especially remarkable

vitamin B12
recommended working concentration (Oct4-GFP MEFs [1]): 1.4 µg/mL
effect on the reprogramming efficiency (Oct4-GFP MEFs [1]): have effects on the reprogramming efficiency
